Where two headings read alike, the source gives them in different places.
Legend:
parental HEK cells = experiment: HEK parental Agonist Counterscreen Assay (non-transfected cells); assay type: cell-based; details: for Averaged Max % Response (±St. Dev.): activity relative to known control
From the text: The high control for the agonist counterscreen was Forskolin not acetylcholine.

GPR139 = target: T1, GPR139 (Homo sapiens, UniProt Q6DWJ6); experiment: GPR139 Agonist titration / agonist counterscreen assay (calcium detection, HEK-GPR139 cells); assay type: cell-based; set-up: expressed in transfected cells; host or cells: HEK Aequorin cells, Maxcyte transient transfection; details: GPR139 Agonist Activity; for EC50: read-out: EC50; for Averaged Max % Response (±St. Dev.): activity relative to known control
T1 sequence (Q6DWJ6 1-353): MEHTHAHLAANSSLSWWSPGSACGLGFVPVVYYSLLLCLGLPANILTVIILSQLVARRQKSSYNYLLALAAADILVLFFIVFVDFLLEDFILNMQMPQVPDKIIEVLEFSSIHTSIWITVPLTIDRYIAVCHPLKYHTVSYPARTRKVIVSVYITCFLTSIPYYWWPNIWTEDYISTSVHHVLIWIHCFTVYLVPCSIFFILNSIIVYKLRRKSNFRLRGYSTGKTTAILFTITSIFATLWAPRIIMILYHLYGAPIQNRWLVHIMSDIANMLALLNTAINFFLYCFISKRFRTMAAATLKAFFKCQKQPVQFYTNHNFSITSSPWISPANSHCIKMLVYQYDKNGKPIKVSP
Procedure: GPR activity was assessed using a calcium detection assay. […] Negative control samples were treated with DMSO. […] Intracellular calcium was measured using Calcium 5.

[1] = HEK Agonist Activity section of Table 4 (parental HEK counterscreen)
[2] = Homo sapiens, HEK293, HEK Agonist Activity section of Table 4 (parental HEK counterscreen)
[3] = values printed in E-notation without unit
[4] = Homo sapiens, HEK293, HEK Agonist Activity, parental non-transfected HEK cells

SMILES | Lipophilic Efficiency (logD) (parental HEK cells; HEK Agonist Activity section) | Lipophilic Efficiency (logP) (parental HEK cells; HEK Agonist Activity section) | EC50 (parental HEK cells; [1]) [µM] | Averaged Max % Response (±St. Dev.) (parental HEK cells; HEK Agonist Activity section) [%] | Efficiency Ligand (GPR139) | Hill Slope (GPR139) | Lipophilic Efficiency (logD) (GPR139) | Lipophilic Efficiency (logP) (GPR139) | EC50 (GPR139; HEK-GPR139 cells) [nM] | Averaged Max % Response (±St. Dev.) (GPR139) [%] | EC50 (parental HEK cells; [2]) [µM] | Lipophilic Efficiency (logD) (GPR139; based on logD) | Lipophilic Efficiency (logP) (GPR139; based on logP) | Hill Slope (GPR139; fitted dose-response curve) | Efficiency Ligand (GPR139; ligand efficiency) | EC50 (GPR139; [3]) [nM] | other results
CCOC(=O)c1cccc(NC(=O)Cc2cccc3ccccc23)c1 [SR-01000267161] | 0.46 | 0.46 | > 14.1 | 13.91 ± 0.63 | 0.33 | 0.55 | 1.49 | 1.49 | 1300 | 105.03 ± 11.34 | – | – | – | – | – | – | –
Cc1c(C=O)c2ccccc2n1CC(=O)NCc1ccccc1 [SR-01000269911] | 2.02 | 2.02 | – | 5.27 ± 9.17 | 0.37 | 1.69 | 3.22 | 3.22 | 898 | 88.11 ± 5.39 | > 14.1 | – | – | – | – | – | –
COc1ccc(CCNC(=O)Nc2ccc(C)cc2)cc1 [SR-01000271555] | 1.38 | 1.38 | – | 14.71 ± 4.12 | – | – | – | – | – | 124.00 ± 20.16 | > 14.1 | 3.11 | 3.11 | 0.62 | 0.44 | 260 | –
CCOC(=O)c1ccc(CSc2nnc(N)s2)cc1 [SR-01000273754] | 1.95 | 1.95 | > 14.1 | 2.38 ± 11.60 | – | – | – | – | – | 86.25 ± 6.17 | – | 4.03 | 4.03 | 0.89 | 0.51 | 118 | –
COc1ccc(OC)c(NC(=O)NNC(=O)C(C)Oc2ccc(Cl)cc2Cl)c1 (centres unmarked) [SR-01000276878] | – | – | – | – | – | – | – | – | – | 97.36 ± 11.63 | – | 4.40 | 4.36 | 0.75 | 0.38 | 23.9 | Lipophilic Efficiency (logD) (parental HEK cells; HEK Agonist Activity): 1.62; Lipophilic Efficiency (logP) (parental HEK cells; HEK Agonist Activity): 1.58; Averaged Max % Response (±St. Dev.) (parental HEK cells; HEK Agonist Activity): 6.40 ± 8.50%; EC50 (parental HEK cells; [4]): > 14.1 µM
COc1ccc(C)cc1NC(=O)NNC(=O)C(C)Oc1ccc(F)cc1Cl (centres unmarked) [SR-01000277633] | 1.40 | 1.38 | – | −5.71 ± 6.76 | 0.33 | 1.11 | 2.85 | 2.82 | 508 | 93.18 ± 13.55 | > 14.1 | – | – | – | – | – | –
O=C(CNc1nnc(CCCOc2ccc(Cl)cc2Cl)o1)Nc1nccs1 [SR-01000280669] | 1.27 | 1.27 | – | −0.76 ± 4.25 | 0.33 | 0.56 | 2.70 | 2.70 | 516 | 83.43 ± 6.82 | > 14.1 | – | – | – | – | – | –
COc1ccc(CSc2nnc(-c3cccnc3)n2N)cc1 [SR-01000284323] | 3.34 | 3.34 | > 14.1 | 3.28 ± 6.64 | 0.41 | 0.57 | 4.90 | 4.90 | 386 | 94.97 ± 7.83 | – | – | – | – | – | – | –
Cc1ccc(SCC(=O)NNC(=O)c2cccs2)cc1 [SR-01000286062] | 2.20 | 2.20 | > 14.1 | 8.31 ± 5.73 | – | – | – | – | – | 99.20 ± 4.08 | – | 4.23 | 4.23 | 0.78 | 0.48 | 132 | –
O=C(CSc1ccc(Cl)cc1)NNC(=O)c1ccc([N+](=O)[O-])cc1 [SR-01000286858] | 2.09 | 2.08 | – | 4.98 ± 9.07 | 0.38 | 0.60 | 3.68 | 3.67 | 366 | 111.41 ± 5.44 | > 14.1 | – | – | – | – | – | –
O=c1cc(-c2ccccc2)[nH]c2nc(OCc3cccc([N+](=O)[O-])c3)nn12 [SR-01000289377] | 1.72 | 1.72 | – | −0.70 ± 7.45 | 0.32 | 1.25 | 3.01 | 3.01 | 727 | 79.17 ± 5.74 | > 14.1 | – | – | – | – | – | –
O=C(CSCc1ccc(Cl)cc1Cl)NNC(=O)c1ccccc1 [SR-01000295701] | – | – | – | – | – | – | – | – | – | 126.44 ± 4.55 | – | 5.48 | 5.47 | – | 0.56 | < 0.716 | Lipophilic Efficiency (logD) (parental HEK cells; HEK Agonist Activity): 1.19; Lipophilic Efficiency (logP) (parental HEK cells; HEK Agonist Activity): 1.17; Averaged Max % Response (±St. Dev.) (parental HEK cells; HEK Agonist Activity): −4.01 ± 2.60%; EC50 (parental HEK cells; HEK Agonist Activity, parental non-transfected HEK cells): > 14.1 µM
O=C(CSCc1cccc2ccccc12)Nc1c[nH]c(=O)[nH]c1=O [SR-01000296110] | 3.56 | 3.55 | > 14.1 | 3.41 ± 3.54 | 0.35 | 1.48 | 4.77 | 4.76 | 857 | 96.78 ± 9.37 | – | – | – | – | – | – | –
Cc1c(Br)c([N+](=O)[O-])nn1CC(=O)NCCc1ccc(Cl)cc1 [SR-01000298170] | – | – | – | – | – | – | – | – | – | 119.00 ± 5.31 | – | 4.08 | 4.08 | 0.27 | 0.46 | 31.6 | Lipophilic Efficiency (logD) (parental HEK cells; HEK Agonist Activity): 1.44; Lipophilic Efficiency (logP) (parental HEK cells; HEK Agonist Activity): 1.44; Averaged Max % Response (±St. Dev.) (parental HEK cells; HEK Agonist Activity): 10.66 ± 2.50%; EC50 (parental HEK cells; [4]): > 14.1 µM
Cc1ccc(NC(=O)NCCCc2ccccc2)cc1 [SR-01000299370] | 0.78 | 0.78 | – | −5.05 ± 8.64 | 0.38 | 0.74 | 1.36 | 1.36 | 3700 | 68.10 ± 8.73 | > 14.1 | – | – | – | – | – | –
C=C(CCC)c1ccc(CCC2=NNC(c3ccccc3)N2C)cc1 (centres unmarked) [SR-01000299610] | 2.82 | 2.82 | – | −12.89 ± 6.99 | 0.33 | 0.79 | 3.88 | 3.88 | – | 71.34 ± 19.37 | > 14.1 | – | – | – | – | – | –
O=C(Cn1ccc([N+](=O)[O-])n1)NCCc1ccc(Cl)cc1 [SR-01000299915] | – | – | – | – | – | – | – | – | – | 99.72 ± 18.10 | – | 5.86 | 5.86 | 1.13 | 0.55 | 5 | Lipophilic Efficiency (logD) (parental HEK cells; HEK Agonist Activity): 2.40; Lipophilic Efficiency (logP) (parental HEK cells; HEK Agonist Activity): 2.40; Averaged Max % Response (±St. Dev.) (parental HEK cells; HEK Agonist Activity): 2.39 ± 2.18%; EC50 (parental HEK cells; [4]): > 14.1 µM
Cc1cc(C)c2c(CC(=O)NNC(=O)COc3ccccc3)coc2c1 [SR-01000301649] | 1.94 | 1.93 | > 14.1 | 14.38 ± 10.96 | – | – | – | – | – | 93.20 ± 6.78 | – | 3.92 | 3.92 | 0.91 | 0.37 | 145 | –
Cc1ccc(NC(=O)NNC(=O)COc2ccc(Cl)cc2)c(C)c1 [SR-01000309617] | 1.74 | 1.67 | – | −3.26 ± 4.40 | – | – | – | – | – | 94.36 ± 3.49 | > 14.4 | 3.88 | 3.82 | 0.63 | 0.41 | – | –
CC1=NNC(=O)C1CC(=O)N/N=C/c1c(Cl)cccc1Cl (centres unmarked) [SR-01000310664] | 3.00 | 3.00 | > 14.1 | 28.78 ± 5.42 | 0.41 | 0.70 | 4.32 | 4.32 | 672 | 89.42 ± 11.78 | – | – | – | – | – | – | –

Source: patent publication US20250099420A1, “SMALL MOLECULE MODULATORS OF GPR139 COMPLEX” (University of Florida Research Foundation, Incorporated, priority 2022, published 2025)
